Reference: ChEMBL document CHEMBL1152050, “Asymmetric synthesis of enantiomerically pure 4-fluoroalkyl-2,3-dideoxy nucleosides” (Bioorg Med Chem Lett, 1994)

Experiments:
MT4 [1] = experiment: Cytotoxicity by the MTT assay in MT-4 cells at a dose of 100 ug/ml; No significant activity; type: functional, cell-based; settings: Homo sapiens
MT4 [2] = experiment: Antiviral activity expressed as ability to prevent the HIV-induced cytopathic effect in MT-4 cells at a dose of 100 ug/ml; No significant activity; type: functional, cell-based; settings: Homo sapiens

In the case of `Cc1cn(C2CC[C@](CO)(CF)O2)c(=O)[nH]c1=O` (single isomer, unassigned), the Activity (MT4 [1]) is reported as “No significant activity” and the Activity (MT4 [2]) is reported as “No significant activity”.
With `Cc1cn([C@@H]2CCC(CO)(CF)O2)c(=O)[nH]c1=O` (single isomer, unassigned) the Activity (MT4 [1]) was “No significant activity” and the Activity (MT4 [2]) was “No significant activity”.
